Test results: ChEMBL document CHEMBL3046027, “In vitro and in vivo antifungal activity of synthetic pure isothiocyanates against Sclerotinia sclerotiorum” (Pest Manag Sci, 2011)

Experiments:
[1] = tested on: Sclerotinia sclerotiorum; assay: Fungistatic activity in Sclerotinia sclerotiorum assessed as inhibition of carpogenic germination in volatile phase at 418 umol/l measured at 20 degC after 5 days relative to control; type: functional; conditions: 120 h
[2] = tested on: Sclerotinia sclerotiorum; assay: Antifungal activity against Sclerotinia sclerotiorum assessed as inhibition of mycelial growth in volatile phase at 418 umol/l measured at 20 degC after 5 days; type: functional; conditions: 120 h, read-out: GI
[3] = tested on: Sclerotinia sclerotiorum; assay: Antifungal activity against Sclerotinia sclerotiorum assessed as inhibition of mycelial growth in volatile phase at 84 umol/l measured at 20 degC after 5 days; type: functional; conditions: 120 h, read-out: GI
[4] = tested on: Sclerotinia sclerotiorum; assay: Fungistatic activity in Sclerotinia sclerotiorum assessed as inhibition of mycelial growth in contact phase measured at 20 degC after 5 days; type: functional, organism-based; conditions: 120 h
[5] = tested on: Sclerotinia sclerotiorum; assay: Antifungal activity against Sclerotinia sclerotiorum assessed as inhibition of mycelial growth in contact phase at 1672 umol/l measured at 20 degC after 5 days; type: functional; conditions: 120 h, read-out: GI
[6] = tested on: Sclerotinia sclerotiorum; assay: In vivo antifungal Sclerotinia sclerotiorum in Pepper (Capsicum annuum L. cv. Sera Demre) assessed as inhibition of mycelial growth in volatile phase at 168 umol/L measured after 10 to 14 weeks; type: functional
[7] = tested on: Sclerotinia sclerotiorum; assay: Fungistatic activity in Sclerotinia sclerotiorum assessed as inhibition of carpogenic germination in volatile phase at 836 umol/l measured at 20 degC after 5 days relative to control; type: functional; conditions: 120 h
[8] = tested on: Sclerotinia sclerotiorum; assay: Antifungal activity against Sclerotinia sclerotiorum assessed as inhibition of mycelial growth in volatile phase at 836 umol/l measured at 20 degC after 5 days; type: functional; conditions: 120 h, read-out: GI
[9] = tested on: Sclerotinia sclerotiorum; assay: Antifungal activity against Sclerotinia sclerotiorum assessed as inhibition of germination in volatile phase at 42 umol/l measured at 20 degC after 5 days; type: functional; conditions: 120 h
[10] = tested on: Sclerotinia sclerotiorum; assay: Antifungal activity against Sclerotinia sclerotiorum assessed as inhibition of germination in volatile phase at 84 umol/l measured at 20 degC after 5 days; type: functional; conditions: AT84, 120 h
[11] = tested on: Sclerotinia sclerotiorum; assay: Fungitoxic activity in Sclerotinia sclerotiorum assessed as inhibition of mycelial growth in contact phase at 2508 umol/l measured at 20 degC after 5 days relative to control; type: functional; conditions: 120 h
[12] = tested on: Sclerotinia sclerotiorum; assay: Fungistatic activity in Sclerotinia sclerotiorum assessed as inhibition of carpogenic germination in volatile phase at 42 umol/l measured at 20 degC after 5 days relative to control; type: functional; conditions: 120 h
[13] = tested on: Sclerotinia sclerotiorum; assay: Fungistatic activity in Sclerotinia sclerotiorum assessed as sclerotial viability measured at 20 degC after 5 days; type: functional, organism-based; conditions: 120 h
[14] = tested on: Sclerotinia sclerotiorum; assay: Fungistatic activity in Sclerotinia sclerotiorum assessed as inhibition of carpogenic germination in volatile phase at 84 umol/l measured at 20 degC after 5 days relative to control; type: functional; conditions: AT84, 120 h
[15] = tested on: Sclerotinia sclerotiorum; assay: Fungistatic activity in Sclerotinia sclerotiorum assessed as inhibition of mycelial growth in volatile phase measured at 20 degC after 5 days; type: functional, organism-based; conditions: 120 h
[16] = tested on: Sclerotinia sclerotiorum; assay: Fungistatic activity in Sclerotinia sclerotiorum assessed as inhibition of mycelial growth in contact phase at 1672 umol/l measured at 20 degC after 5 days relative to control; type: functional; conditions: 120 h, read-out: GI
[17] = tested on: Sclerotinia sclerotiorum; assay: Antifungal activity against Sclerotinia sclerotiorum assessed as inhibition of mycelial growth in contact phase at 2508 umol/l measured at 20 degC after 5 days; type: functional; conditions: 120 h, read-out: GI
[18] = tested on: Sclerotinia sclerotiorum; assay: Fungistatic activity in Sclerotinia sclerotiorum assessed as viability in volatile phase at 418 umol/l measured at 20 degC after 5 days relative to control; type: functional; conditions: 120 h, read-out: GI
[19] = tested on: Sclerotinia sclerotiorum; assay: Fungistatic activity in Sclerotinia sclerotiorum assessed as inhibition of mycelial growth in volatile phase at 836 umol/l measured at 20 degC after 5 days relative to control; type: functional; conditions: 120 h, read-out: GI
[20] = tested on: Sclerotinia sclerotiorum; assay: Antifungal activity against Sclerotinia sclerotiorum assessed as inhibition of mycelial growth in contact phase at 585 umol/l measured at 20 degC after 5 days; type: functional; conditions: 120 h, read-out: GI
[21] = tested on: Sclerotinia sclerotiorum; assay: Antifungal activity against Sclerotinia sclerotiorum assessed as inhibition of mycelial growth in volatile phase at 42 umol/l measured at 20 degC after 5 days; type: functional; conditions: 120 h, read-out: GI
[22] = tested on: Sclerotinia sclerotiorum; assay: Antifungal activity against Sclerotinia sclerotiorum assessed as inhibition of germination in volatile phase at 836 umol/l measured at 20 degC after 5 days; type: functional; conditions: 120 h
[23] = tested on: Sclerotinia sclerotiorum; assay: In vivo antifungal Sclerotinia sclerotiorum in Pepper (Capsicum annuum L. cv. Sera Demre) assessed as inhibition of mycelial growth in volatile phase at 84 umol/L measured after 10 to 14 weeks; type: functional
[24] = tested on: Sclerotinia sclerotiorum; assay: Antifungal activity against Sclerotinia sclerotiorum assessed as inhibition of mycelial growth in contact phase at 752 umol/l measured at 20 degC after 5 days; type: functional; conditions: 120 h, read-out: GI
[25] = tested on: Sclerotinia sclerotiorum; assay: Antifungal activity against Sclerotinia sclerotiorum assessed as inhibition of germination in volatile phase at 251 umol/l measured at 20 degC after 5 days; type: functional; conditions: 120 h
[26] = tested on: Sclerotinia sclerotiorum; assay: Antifungal activity against Sclerotinia sclerotiorum assessed as inhibition of mycelial growth in volatile phase at 585 umol/l measured at 20 degC after 5 days; type: functional; conditions: 120 h, read-out: GI
[27] = tested on: Sclerotinia sclerotiorum; assay: Antifungal activity against Sclerotinia sclerotiorum assessed as inhibition of germination in volatile phase at 418 umol/l measured at 20 degC after 5 days; type: functional; conditions: 120 h
[28] = tested on: Sclerotinia sclerotiorum; assay: Antifungal activity against Sclerotinia sclerotiorum assessed as inhibition of mycelial growth in contact phase at 836 umol/l measured at 20 degC after 5 days; type: functional; conditions: 120 h, read-out: GI
[29] = tested on: Sclerotinia sclerotiorum; assay: Fungistatic activity in Sclerotinia sclerotiorum assessed as inhibition of mycelial growth in volatile phase at 550 umol/l measured at 20 degC after 5 days relative to control; type: functional; conditions: 120 h, read-out: GI
[30] = tested on: Sclerotinia sclerotiorum; assay: Antifungal activity against Sclerotinia sclerotiorum assessed as inhibition of germination in volatile phase at 236 umol/l measured at 20 degC after 5 days; type: functional; conditions: 120 h
[31] = tested on: Sclerotinia sclerotiorum; assay: In vivo antifungal Sclerotinia sclerotiorum in Pepper (Capsicum annuum L. cv. Sera Demre) assessed as inhibition of mycelial growth in volatile phase at 158 umol/L measured after 10 to 14 weeks; type: functional
[32] = tested on: Sclerotinia sclerotiorum; assay: Antifungal activity against Sclerotinia sclerotiorum assessed as inhibition of mycelial growth in contact phase at 550 umol/l measured at 20 degC after 5 days; type: functional; conditions: 120 h, read-out: GI
[33] = tested on: Sclerotinia sclerotiorum; assay: Antifungal activity against Sclerotinia sclerotiorum assessed as inhibition of mycelial growth in volatile phase at 393 umol/l measured at 20 degC after 5 days; type: functional; conditions: 120 h, read-out: GI
[34] = tested on: Sclerotinia sclerotiorum; assay: Fungistatic activity in Sclerotinia sclerotiorum assessed as inhibition of carpogenic germination in volatile phase at 79 umol/l measured at 20 degC after 5 days relative to control; type: functional; conditions: 120 h
[35] = tested on: Sclerotinia sclerotiorum; assay: Antifungal activity against Sclerotinia sclerotiorum assessed as inhibition of germination in volatile phase at 786 umol/l measured at 20 degC after 5 days; type: functional; conditions: 120 h
[36] = tested on: Sclerotinia sclerotiorum; assay: Fungistatic activity in Sclerotinia sclerotiorum assessed as inhibition of mycelial growth in contact phase at 2358 umol/l measured at 20 degC after 5 days relative to control; type: functional; conditions: 120 h, read-out: GI
[37] = tested on: Sclerotinia sclerotiorum; assay: Antifungal activity against Sclerotinia sclerotiorum assessed as inhibition of germination in volatile phase at 393 umol/l measured at 20 degC after 5 days; type: functional; conditions: 120 h
[38] = tested on: Sclerotinia sclerotiorum; assay: Fungistatic activity in Sclerotinia sclerotiorum assessed as inhibition of carpogenic germination in volatile phase at 786 umol/l measured at 20 degC after 5 days relative to control; type: functional; conditions: 120 h
[39] = tested on: Sclerotinia sclerotiorum; assay: Antifungal activity against Sclerotinia sclerotiorum assessed as inhibition of germination in volatile phase at 39 umol/l measured at 20 degC after 5 days; type: functional; conditions: 120 h
[40] = tested on: Sclerotinia sclerotiorum; assay: Antifungal activity against Sclerotinia sclerotiorum assessed as inhibition of mycelial growth in contact phase at 708 umol/l measured at 20 degC after 5 days; type: functional; conditions: 120 h, read-out: GI
[41] = tested on: Sclerotinia sclerotiorum; assay: Antifungal activity against Sclerotinia sclerotiorum assessed as inhibition of mycelial growth in contact phase at 786 umol/l measured at 20 degC after 5 days; type: functional; conditions: 120 h, read-out: GI
[42] = tested on: Sclerotinia sclerotiorum; assay: Antifungal activity against Sclerotinia sclerotiorum assessed as inhibition of mycelial growth in contact phase at 2358 umol/l measured at 20 degC after 5 days; type: functional; conditions: 120 h, read-out: GI
[43] = tested on: Sclerotinia sclerotiorum; assay: Antifungal activity against Sclerotinia sclerotiorum assessed as inhibition of mycelial growth in volatile phase at 550 umol/l measured at 20 degC after 5 days; type: functional; conditions: 120 h, read-out: GI
[44] = tested on: Sclerotinia sclerotiorum; assay: Antifungal activity against Sclerotinia sclerotiorum assessed as inhibition of mycelial growth in volatile phase at 786 umol/l measured at 20 degC after 5 days; type: functional; conditions: 120 h, read-out: GI
[45] = tested on: Sclerotinia sclerotiorum; assay: Fungistatic activity in Sclerotinia sclerotiorum assessed as viability in volatile phase at 786 umol/l measured at 20 degC after 5 days relative to control; type: functional; conditions: 120 h, read-out: GI
[46] = tested on: Sclerotinia sclerotiorum; assay: In vivo antifungal Sclerotinia sclerotiorum in Pepper (Capsicum annuum L. cv. Sera Demre) assessed as inhibition of mycelial growth in volatile phase at 79 umol/L measured after 10 to 14 weeks; type: functional
[47] = tested on: Sclerotinia sclerotiorum; assay: Antifungal activity against Sclerotinia sclerotiorum assessed as inhibition of mycelial growth in volatile phase at 39 umol/l measured at 20 degC after 5 days; type: functional; conditions: 120 h, read-out: GI
[48] = tested on: Sclerotinia sclerotiorum; assay: Antifungal activity against Sclerotinia sclerotiorum assessed as inhibition of mycelial growth in volatile phase at 79 umol/l measured at 20 degC after 5 days; type: functional; conditions: 120 h, read-out: GI
[49] = tested on: Sclerotinia sclerotiorum; assay: Fungistatic activity in Sclerotinia sclerotiorum assessed as inhibition of carpogenic germination in volatile phase at 393 umol/l measured at 20 degC after 5 days relative to control; type: functional; conditions: 120 h
[50] = tested on: Sclerotinia sclerotiorum; assay: Antifungal activity against Sclerotinia sclerotiorum assessed as inhibition of mycelial growth in contact phase at 1572 umol/l measured at 20 degC after 5 days; type: functional; conditions: 120 h, read-out: GI
[51] = tested on: Sclerotinia sclerotiorum; assay: Antifungal activity against Sclerotinia sclerotiorum assessed as inhibition of germination in volatile phase at 79 umol/l measured at 20 degC after 5 days; type: functional; conditions: 120 h

## S=C=Nc1ccccc1 [PHENYLISOTHIOCYANATE]
[1]
  inhibition at 418 µM: 52.5%
[2]
  inhibition of growth at 418 µM: 70%
[3]
  inhibition of growth at 84 µM: 42.8%
[4]
  EC50: 802 µM
[5]
  inhibition of growth at 1672 µM: 100%
[6]
  inhibition in vivo at 168 µM: 68.3%
[7]
  inhibition at 836 µM: 85%
[8]
  inhibition of growth at 836 µM: 100%
[9]
  inhibition at 42 µM: 6.7%
[10]
  inhibition at 84 µM: 13.3%
[11]
  inhibition at 2508 µM: 100%
[12]
  inhibition at 42 µM: 12.5%
[13]
  EC50: 192 µM
[14]
  inhibition at 84 µM: 52.5%
[15]
  EC50: 134 µM
[16]
  inhibition of growth at 1672 µM: 100%
[17]
  inhibition of growth at 2508 µM: 100%
[18]
  inhibition of growth at 418 µM: 100%
[19]
  inhibition of growth at 836 µM: 100%
[20]
  inhibition of growth at 585 µM: 5%
[21]
  inhibition of growth at 42 µM: 20.8%
[22]
  inhibition at 836 µM: 100%
[23]
  inhibition in vivo at 84 µM: 61.7%
[24]
  inhibition of growth at 752 µM: 23.7%
[25]
  inhibition at 251 µM: 46.7%
[26]
  inhibition of growth at 585 µM: 74.2%
[27]
  inhibition at 418 µM: 100%
[28]
  inhibition of growth at 836 µM: 65.5%

## CCN=C=S [ETHYL ISOTHIOCYANATE]
[29]
  inhibition of growth at 550 µM: 100%
[30]
  inhibition at 236 µM: 46.7%
[4]
  EC50: 653 µM
[31]
  inhibition in vivo at 158 µM: 70%
[32]
  inhibition of growth at 550 µM: 34.2%
[33]
  inhibition of growth at 393 µM: 56%
[34]
  inhibition at 79 µM: 52.5%
[35]
  inhibition at 786 µM: 100%
[36]
  inhibition of growth at 2358 µM: 100%
[37]
  inhibition at 393 µM: 66.7%
[13]
  EC50: 212 µM
[38]
  inhibition at 786 µM: 87.5%
[39]
  inhibition at 39 µM: 0%
[40]
  inhibition of growth at 708 µM: 56.2%
[41]
  inhibition of growth at 786 µM: 69.5%
[15]
  EC50: 157 µM
[42]
  inhibition of growth at 2358 µM: 100%
[43]
  inhibition of growth at 550 µM: 100%
[44]
  inhibition of growth at 786 µM: 100%
[45]
  inhibition of growth at 786 µM: 100%
[46]
  inhibition in vivo at 79 µM: 38.3%
[47]
  inhibition of growth at 39 µM: 5%
[48]
  inhibition of growth at 79 µM: 30.8%
[49]
  inhibition at 393 µM: 62.5%
[50]
  inhibition of growth at 1572 µM: 81.5%
[51]
  inhibition at 79 µM: 26.7%
